Results as given in ChEMBL document CHEMBL1132411, “Bis- and mixed-tetrahydroisoquinolinium chlorofumarates: new ultra-short-acting nondepolarizing neuromuscular blockers” (1999).

How the values were obtained:
Format in all cases: functional, Cercopithecidae
Monkey [1] = test: Compound was evaluated for the dose producing 95% suppression of the twitch response in male Rhesus Monkey.
Monkey [2] = test: Compound was evaluated for the time from injection to recovery of the twitch to 95% of baseline at the ED95 dose
Monkey [3] = test: Compound was evaluated for the time from injection to peak inhibition of the twitch response at the ED95 dose
Monkey [4] = test: Compound was evaluated for the time from injection to peak inhibition of the twitch response at 0.4 mg/kg dose
Monkey [5] = test: Compound was evaluated for the time from injection to recovery of the twitch to 95% of baseline at 0.4 mg/kg dose
Monkey [6] = test: Compound was evaluated for the time from injection to peak inhibition of the twitch response at 0.2 mg/kg dose
Monkey [7] = test: Compound was evaluated for the time from injection to recovery of the twitch to 95% of baseline at 0.2 mg/kg dose
[8] = Cercopithecidae, in Macaca mulatta, read-out: ED95

COc1cc2c(cc1OC)[C@H](c1cc(OC)c(OC)c(OC)c1)[N@@+](C)(CCCOC(=O)/C(Cl)=C/C(=O)OCCC[N@+]1(C)CCc3cc(OC)c(OC)cc3[C@H]1Cc1cc(OC)c(OC)c(OC)c1)CC2.[Cl-].[Cl-]
ED95 (Monkey [1]; [8]): 0.25 mg/kg | Duration (Monkey [2]): 3.4 min | Onset (Monkey [3]): 52 s

COc1cc2c(cc1OC)[C@H](c1cc(OC)c(OC)c(OC)c1)[N@@+](C)(CCCOC(=O)/C=C(\Cl)C(=O)OCCC[N@+]1(C)CCc3cc(OC)c(OC)cc3[C@H]1Cc1cc(OC)c(OC)c(OC)c1)CC2.[Cl-].[Cl-] (stereo in doubt; 6a) [GANTACURIUM CHLORIDE]
Onset (Monkey [4]; 0.4 mg/kg): 25 s | ED95 (Monkey [1]): 0.063 mg/kg | Duration (Monkey [5]; 0.4 mg/kg): 10 min | Onset (Monkey [3]): 88 s | Onset (Monkey [6]; 0.2 mg/kg): 38 s | Duration (Monkey [7]; 0.2 mg/kg): 8.46 min

COc1cc2c(cc1OC)[C@@H](Cc1cc(OC)c(OC)c(OC)c1)[N+](C)(CCCOC(=O)CC/C=C/CCC(=O)OCCC[N+]1(C)CCc3cc(OC)c(OC)cc3[C@H]1Cc1cc(OC)c(OC)c(OC)c1)CC2.[Cl-].[Cl-] (stereo partly specified) [MIVACURIUM CHLORIDE]
ED95 (Monkey [1]; [8]): 0.062 mg/kg | Duration (Monkey [2]): 12 min | Onset (Monkey [3]): 107 s

COc1cc2c(cc1OC)[C@H](c1cc(OC)c(OC)c(OC)c1)[N@@+](C)(CCCOC(=O)/C=C(\Cl)C(=O)OCCC[N@@+]1(C)CCc3cc(OC)c(OC)cc3[C@@H]1c1cc(OC)c(OC)c(OC)c1)CC2.[Cl-].[Cl-]
ED95 (Monkey [1]; [8]): 8.5 mg/kg | Duration (Monkey [2]): 11.2 min | Onset (Monkey [3]): 55 s

COc1cc2c(cc1OC)[C@H](c1cc(OC)c(OC)c(OC)c1)[N@@+](C)(CCCOC(=O)/C=C(\Cl)C(=O)OCCC[N@+]1(C)CCc3cc(OC)c(OC)cc3[C@H]1Cc1cc(OC)c(OC)c(OC)c1)CC2.[Cl-].[Cl-] (stereo in doubt; 6ab) [GANTACURIUM CHLORIDE]
Onset (Monkey [4]; 0.4 mg/kg): 27 s | ED95 (Monkey [1]): 0.163 mg/kg | Duration (Monkey [5]; 0.4 mg/kg): 8.7 min | Duration (Monkey [2]): 5.6 min | Onset (Monkey [3]): 51 s | Onset (Monkey [6]; 0.2 mg/kg): 44 s | Duration (Monkey [7]; 0.2 mg/kg): 7.1 min

C[N+](C)(C)CCOC(=O)CCC(=O)OCC[N+](C)(C)C.[Cl-].[Cl-] [SUCCINYLCHOLINE CHLORIDE]
ED95 (Monkey [1]; [8]): 1.29 mg/kg | Duration (Monkey [2]): 5 min | Onset (Monkey [3]): 50 s

COc1cc2c(cc1OC)[C@@H](Cc1cc(OC)c(OC)c(OC)c1)[N@+](C)(CCCOC(=O)/C=C(\Cl)C(=O)OCCC[N@+]1(C)CCc3cc(OC)c(OC)cc3[C@H]1Cc1cc(OC)c(OC)c(OC)c1)CC2.[Cl-].[Cl-]
Onset (Monkey [4]): 23 s | ED95 (Monkey [1]; [8]): 0.109 mg/kg | Duration (Monkey [5]): 13.4 min | Duration (Monkey [2]): 8.7 min | Onset (Monkey [3]): 73 s | Onset (Monkey [6]): 36 s | Duration (Monkey [7]): 9.78 min

COc1cc2c(cc1OC)[C@@H](c1cc(OC)c(OC)c(OC)c1)[N@+](C)(CCCOC(=O)/C=C(\Cl)C(=O)OCCC[N@+]1(C)CCc3cc(OC)c(OC)cc3[C@H]1c1cc(OC)c(OC)c(OC)c1)CC2.[Cl-].[Cl-]
ED95 (Monkey [1]; [8]): 1.79 mg/kg | Duration (Monkey [2]): 5.1 min | Onset (Monkey [3]): 46 s

COc1cc2c(cc1OC)[C@@H](c1cc(OC)c(OC)c(OC)c1)[N@+](C)(CCCOC(=O)/C=C/C(=O)OCCC[N@+]1(C)CCc3cc(OC)c(OC)cc3[C@H]1c1cc(OC)c(OC)c(OC)c1)CC2.[Cl-].[Cl-]
ED95 (Monkey [1]; [8]): 1.55 mg/kg | Duration (Monkey [2]): 25.5 min | Onset (Monkey [3]): 144 s

COc1cc2c(cc1OC)[C@@H](c1cc(OC)c(OC)c(OC)c1)[N@+](C)(CCCOC(=O)/C(Cl)=C/C(=O)OCCC[N@+]1(C)CCc3cc(OC)c(OC)cc3[C@H]1Cc1cc(OC)c(OC)c(OC)c1)CC2.[Cl-].[Cl-]
ED95 (Monkey [1]; [8]): 0.31 mg/kg | Duration (Monkey [2]): 3.7 min | Onset (Monkey [3]): 37 s
